How the values were obtained:
[1] = test system: in vitro translated Gag-Pol precursor; parameters: method as in PMID 15280456; conditions: ref [21]; cited from earlier work
[2] = target: embedded protease of GST-p6*-PR^NL-HA / GST-M1-PR^NL-HA fusion precursor (proximal site) (Human immunodeficiency virus type 1, UniProt P12497); assay: P site cleavage reaction mediated by the embedded protease, PR^NL fusion precursor, HEK293T cells; format: cell-based, HIV-1; conditions: darunavir; embedded vs released protease
Method: (§1) HEK293T cells (ATCC, Manassas, VA) were maintained in DMEM containing 10% fetal bovine serum and penicillin/streptomycin (0.6% Penicillin G sodium salt, 1.0% Streptomycin sulfate, 0.85% NaCl). Plasmid DNA was transfected into HEK293T cells using calcium phosphate as previously described [25, 46]. Briefly, HEK293T cells were seeded in 12-well plates the day before transfection to achieve 50~60% confluence at the time of transfection. About 1 h prior to transfection, chloroquine was added into each well to a final concentration of 25 μM. A total of 0.5 μg plasmid DNA in 65.7 μl H2O was mixed with 9.3 μl of 2 M CaCl2. Then 75 μl of 2xHBS (50 mM Hepes, pH7.04~7.05, 10 mM KCl, 12 mM Dextrose, 280 mM NaCl, 1.5 mM Na2HPO4) was added to the DNA-Ca mixture followed by gentle agitation. The resulting mixture was directly added drop-wise to each well. […] After 7-8 h incubation at 37°C, 5% CO2, the transfection medium was replaced with fresh chloroquine-free medium containing the corresponding protease inhibitors. […]
(§2) For quantification of protein intensity, Western blot images captured by an Odyssey infrared dual laser scanning unit were analyzed using TotalLab software (Nonlinear Dynamics Inc.). The total pixel volume of each band was quantified and normalized; the highest value was arbitrarily set at 1000.

[3] = target: T1, PR^NL H69D precursor (Human immunodeficiency virus type 1 group M subtype B, UniProt P12497, H557D); format: cell-based, HIV-1; conditions: darunavir, Figure 2F
T1 construct: expressed in transfected cells; host or cells: HEK293T
Method: as §1, §2

[4] = test system: embedded protease of GST-M2-PR (tagless precursor); assay: P site cleavage reaction, tagless precursor GST-M2-PR; format: cell-based, HIV-1; parameters: dose or concentration left out as unconfirmed; conditions: […] nM darunavir
From the text: To examine whether different amino acid sequences fused to the C-terminus of PR influence protease autoprocessing, we engineered a panel of fusion precursors carrying different C-terminal epitopes (Figure 5A). A truncated version of M2 p6* (Figure 2A) was used to allow focused examination of the P site cleavage reaction. We also constructed GST-M2-PR, a precursor lacking any C-terminal epitope, to serve as a reference control.
HEK293T cells (ATCC, Manassas, VA) were maintained in DMEM containing 10% fetal bovine serum and penicillin/streptomycin (0.6% Penicillin G sodium salt, 1.0% Streptomycin sulfate, 0.85% NaCl). Plasmid DNA was transfected into HEK293T cells using calcium phosphate as previously described [25, 46]. Briefly, HEK293T cells were seeded in 12-well plates the day before transfection to achieve 50~60% confluence at the time of transfection. About 1 h prior to transfection, chloroquine was added into each well to a final concentration of 25 μM. A total of 0.5 μg plasmid DNA in 65.7 μl H2O was mixed with 9.3 μl of 2 M CaCl2. […]
as §2

[5] = test system: HIV-1 infected cells (p24 production); conditions: ref [40],[41], read-out: IC50 to inhibit the production of p24; cited from earlier work
[6] = test system: mature protease; conditions: ref [40],[41]; cited from earlier work

| Structure (SMILES) | sensitivity of Gag-Pol precursor to inhibition compared to the mature protease [1] | embedded protease less sensitive to inhibition than the corresponding released protease [2] | suppression of autoprocessing reactions mediated by the embedded H69D PR [3] | effect of treatment on the amount of the released proteases (H69D) ([3]; PR^NL H69D precursor) | suppression of the cleavage reaction, tagless precursor [4] | IC50 [5] | affinity for the catalytic site of the mature protease [6] |
| --- | --- | --- | --- | --- | --- | --- | --- |
| CC(C)c1nc(CN(C)C(=O)N[C@H](C(=O)N[C@@H](Cc2ccccc2)C[C@H](O)[C@H](Cc2ccccc2)NC(=O)OCc2cncs2)C(C)C)cs1 [ritonavir] | significantly low sensitivity | – | – | – | – | – | – |
| CC(C)CN(C[C@@H](O)[C@H](Cc1ccccc1)NC(=O)O[C@H]1CO[C@H]2OCC[C@H]21)S(=O)(=O)c1ccc(N)cc1 [darunavir] | – | at least 100 fold | not suppressed | did not increase | not suppressed | ~5 nM | low nanomolar |

Source: publication PMC3210109, “Flexible catalytic site conformations implicated in modulation of HIV-1 protease autoprocessing reactions” (Retrovirology, 2011)
